Laboratory results published in patent publication US6004952A, “Micacocidin derivatives” (Shinogi & Co., Ltd., priority 1996, dated 1999).
≈ marks a conversion by molar mass, not a printed value. Like-named read-outs stand apart in the source and are kept apart here.

Legend:
Serpulina hyodysenteriae = experiment: MIC, agar dilution method, anaerobic, Serpulina hyodysenteriae; format: cell-based, S. hyodysenteriae ATCC 27164; conditions: for MIC: Brachyspira hyodysenteriae, ATCC27164
M. hyopneumoniae = experiment: MIC, liquid dilution method, Mycoplasma hyopneumoniae; conditions: Mesomycoplasma hyopneumoniae
Mycoplasma = experiment: MIC to Mycoplasmas (summary in words); format: cell-based
Clostridium perfringens = experiment: microbe, parasite or virus in culture; format: cell-based, C. perfringens ATCC 13124; conditions: for MIC: Clostridium perfringens, ATCC13124
S. aureus = experiment: MIC, agar dilution method, S. aureus; format: cell-based; conditions: Staphylococcus aureus, FDA209P; S. aureus FDA 209P
Eimeria tenella = experiment: Growth inhibition activities to avian coccidium in primary chicken kidney cells; format: cell-based; conditions: for minimal effective concentration: Eimeria tenella
Protocol: The kidneys of SPF new born chicken was sterilely removed, which was treated with trypsin and the resultant primary kidney cells were cultured in 24-well plate. Monolayer culture after cultured for 3 days was treated simultaneously with compounds adjusted to predetermined concentration and sporozoit obtained by artificial excystation, which was cultured a 40° C. Premature and mature schizonts were observed under microscope, and the growth inhibition activities (suppression rate) for each treatment group were calculated at a proportion of the number of schizonts for the sporozoit-inoculated, compound-untreated control group (100%).

mice spleen cells [1] = experiment: Suppression of reaction of mice spleen cells to lypopolysaccaride (LPS), in vitro (MTT); format: cell-based, BDF1 mice; conditions: for inhibition at 0.039 µg/mL: 39 ng/ml; for inhibition at 0.078 µg/mL: 78 ng/ml; for inhibition at 0.156 µg/mL: 156 ng/ml; for inhibition at 0.312 µg/mL: 312 ng/ml; for inhibition at 0.625 µg/mL: 625 ng/ml
Protocol: (§1) To each well of 96 well microtiter plate were added 5×10^5 spleen cells of BDF1 mice suspended in 0.1 ml of RPMI 1640 medium supplemented with 10% bovine fetus serum (supplemented with 2 mM sodium hydrogen carbonate, 50 Units/ml of penicillin, 50 μg/ml of streptomycin, and 5×10^-5 M of 2-mercaptoethanol), and then, 5 μg/ml of Concanavalin A (Con A) or 10 μg/ml of lypopolysaccaride (LPS) and various concentrations of test substance, of which final volume was adjusted to 0.2 ml. Test substances were dissolved in dimethylsulfoxide (DMSO), diluted with RPMI 1640 stated above, and added to the wells so that final concentration of the substances becomes less than 10000 ng/ml. The 96-well microtiter plates were cultured at 37° C. for 3 days in an incubator which was maintained at the humidity of 100%, 5% of carbon dioxide and 95% of air. After cultivation is completed, […] of 6 mg/ml solution of MTT {3-(4,5-dimethylthiazol-2yl)-2,5 diphenyltetrazoliumbromide} (Sigma) is added to each well, which is cultured at 37° C. for […] under the same conditions. After cultivation is completed, formazan formed is dissolved by adding 50 μl of a solution of 20% dodecyl sodium sulfonate (SDS) in 0.02N hydrochloric acid and kept standing at 37° C. for 24 hours. The absorbance (OD) of the formazan which was produced in proportion to the number of alive cells, was determined by using immunoreader equipped with 570 nm filter (see The Journal of Immunological Methods, Vol.65, 55-63, 1983).
(§2) Cell growth inhibition rate and IC50 value were calculated according to the correlation between the concentration and the absorbance for each substance.

[2] = Cytotoxicity to primary chicken kidney culture cells; format: cell-based; conditions: primary chicken kidney cells
[3] = tested on: primary kidney culture cells; experiment: as above; format: cell-based; conditions: at the same concentration
M. gallisepticum = experiment: MIC, liquid dilution method, Mycoplasma gallisepticum; conditions: Mycoplasmoides gallisepticum
mice spleen cells [4] = experiment: Suppression of reaction of mice spleen cells to Concanavalin A, in vitro (MTT); format: cell-based, BDF1 mice; conditions: for inhibition at 0.039 µg/mL: 39 ng/ml; for inhibition at 0.078 µg/mL: 78 ng/ml; for inhibition at 0.156 µg/mL: 156 ng/ml; for inhibition at 0.312 µg/mL: 312 ng/ml; for inhibition at 0.625 µg/mL: 625 ng/ml
Protocol: as §1, §2

M. pneumoniae = experiment: MIC, liquid dilution method, Mycoplasma pneumoniae; conditions: Mycoplasmoides pneumoniae
Candida albicans = experiment: Antifungal activity, micro-liquid dilution method, Candida albicans; format: cell-based, Candida albicans strain Ca-15; conditions: Candida albicans, 24 h, 30° C., read-out: Antifungal activities: IC50
Protocol: (§3) Antifungal activities of the compounds to Candida albicans (strain Ca-15) and Asperilhm fumigatus (strain MA), representative pathogenic fungi, were determined by micro-liquid dilution method using 96-well microplates. A fungal suspension stored under freezing was adjusted to 1×1 O^5 CFU/ml by medium, of which 100 μl portions were charged into each well. The compound of the present invention was dissolved in dimethylsulfoxide (DMSO). Using the resultant solution, 2-fold dilution series were prepared together with the fungal suspension charged into the wells. YNB medium and RPMI medium were used. After cultured for 24 hours at 30° C., evaluation was performed by detecting the turbidity (wave length: 595 nm) using microplate reader.

Aspergillus fumigatus = experiment: Antifungal activity, micro-liquid dilution method, Aspergillus fumigatus; format: cell-based, Aspergillus fumigatus strain MA; conditions: Aspergillus fumigatus, 24 h, 30° C., read-out: Antifungal activities: IC50
Protocol: as §3

[5] = more than 80% of suppression rate regarded as effective, read-out: Effective dose (growth inhibition)
[6] = read-out: Concentrations showing growth inhibition effects
[7] = Mus musculus, 72 h, LPS, read-out: Suppression rate
[8] = Mus musculus, 72 h, Con A, read-out: Suppression rate

Compound	activity to Serpulina (Treponema) hyodysenteriae (Serpulina hyodysenteriae)	MIC (Serpulina hyodysenteriae)	MIC (M. hyopneumoniae)	MICs to Mycoplasmas (Mycoplasma)	activity to Clostridium perflingens (Clostridium perfringens)	MIC (Clostridium perfringens)	growth inhibition activities (Eimeria tenella)	minimal effective concentration (Eimeria tenella; [5])	minimal effective concentration (Eimeria tenella; [6])	suppression of the reaction to LPS of spleen cells (mice spleen cells [1])	inhibition at 0.312 µg/mL (mice spleen cells [1]; [7])	inhibition at 0.625 µg/mL (mice spleen cells [1]; [7])	IC50 (mice spleen cells [1]; Mus musculus, LPS)	MCC [2]	MIC (M. gallisepticum)	suppression of the reaction to Con A of spleen cells (mice spleen cells [4])	inhibition at 0.312 µg/mL (mice spleen cells [4]; [8])	inhibition at 0.625 µg/mL (mice spleen cells [4]; [8])	IC50 (mice spleen cells [4]; Mus musculus, Con A)	MIC (M. pneumoniae)	other results
CCCCCc1cccc(OC)c1C1=NC(C2SCC(C(O)C(C)(C)C3=NC(C)(C(=O)O)CS3)N2C)CS1 (stereo not drawn) [Compound 7]	showed the activity	1.56 µg/mL (≈ 2.69 µM)	0.1 µg/mL (≈ 0.172 µM)	low MICs	showed the activity	0.1 µg/mL (≈ 0.172 µM)	strong growth inhibition activities	0.156 µg/mL	156 µg/mL	suppressed	98.6%	102%	0.084 µg/mL (≈ 0.145 µM)	10 µg/mL	1.56 µg/mL (≈ 2.69 µM)	suppressed	98%	101%	0.129 µg/mL (≈ 0.222 µM)	0.1 µg/mL (≈ 0.172 µM)	MIC (S. aureus): 1.56 µg/mL (≈ 2.69 µM); inhibition at 0.039 µg/mL (mice spleen cells [1]; [7]): 17.2%; inhibition at 0.078 µg/mL (mice spleen cells [1]; [7]): 42.5%; inhibition at 0.156 µg/mL (mice spleen cells [1]; [7]): 80%; cytotoxicity to the primary kidney culture cells [3]: did not show any cytotoxicity; inhibition at 0.039 µg/mL (mice spleen cells [4]; [8]): 10%; inhibition at 0.078 µg/mL (mice spleen cells [4]; [8]): 16.5%; inhibition at 0.156 µg/mL (mice spleen cells [4]; [8]): 60.7%
CCCCCc1cccc(OCOC)c1C1=NC(C2SCC(C(O)C(C)(C)C3=NC(C)(C(=O)OCOC)CS3)N2C)CS1 (stereo not drawn) [Compound 18]	showed the activity		0.05 µg/mL (≈ 0.0765 µM)	low MICs	showed the activity			10 µg/mL		suppressed	93.4%	101%	0.084 µg/mL (≈ 0.128 µM)	> 10 µg/mL	1.56 µg/mL (≈ 2.39 µM)	suppressed	94.9%	98.6%	0.101 µg/mL (≈ 0.154 µM)	0.025 µg/mL (≈ 0.0382 µM)	inhibition at 0.039 µg/mL (mice spleen cells [1]; [7]): 27.4%; inhibition at 0.078 µg/mL (mice spleen cells [1]; [7]): 41.5%; inhibition at 0.156 µg/mL (mice spleen cells [1]; [7]): 74.6%; inhibition at 0.039 µg/mL (mice spleen cells [4]; [8]): 14.7%; inhibition at 0.078 µg/mL (mice spleen cells [4]; [8]): 25.7%; inhibition at 0.156 µg/mL (mice spleen cells [4]; [8]): 75.5%
CCCCCc1cccc(O)c1C1=NC(C2SCC(C(OCOC)C(C)(C)C3=NC(C)(C(=O)OCOC)CS3)N2C)CS1 (stereo not drawn) [Compound 19]			1.56 µg/mL (≈ 2.39 µM)				strong growth inhibition activities	0.156 µg/mL	156 µg/mL					10 µg/mL	6.25 µg/mL (≈ 9.56 µM)					0.39 µg/mL (≈ 0.596 µM)	cytotoxicity to the primary kidney culture cells [3]: did not show any cytotoxicity
CCCCCc1cccc(O)c1C1=NC(C2SCC(C(O)C(C)(C)C3=NC(C)(C(=O)OCOC)CS3)N2C)CS1 (stereo not drawn) [Compound 20]	showed the activity	1.56 µg/mL (≈ 2.56 µM)	0.025 µg/mL (≈ 0.041 µM)	low MICs	showed the activity	3.13 µg/mL (≈ 5.13 µM)		0.625 µg/mL		suppressed	2.1%	98.8%	0.38 µg/mL (≈ 0.623 µM)	> 10 µg/mL	0.1 µg/mL (≈ 0.164 µM)	suppressed	0%	102%	0.506 µg/mL (≈ 0.83 µM)	≤ 0.00625 µg/mL	IC50 (Candida albicans; RPMI medium): 3.2 µg/mL (≈ 5.25 µM); IC50 (Candida albicans; YNB medium): > 100 µg/mL; IC50 (Aspergillus fumigatus; RPMI medium): > 100 µg/mL; IC50 (Aspergillus fumigatus; YNB medium): > 100 µg/mL; inhibition at 1.25 µg/mL (mice spleen cells [1]; Mus musculus, 72 h, LPS, 1250 ng/ml, read-out: Suppression rate): 98.2%; inhibition at 2.5 µg/mL (mice spleen cells [1]; Mus musculus, 72 h, LPS, 2500 ng/ml, read-out: Suppression rate): 96.3%; inhibition at 1.25 µg/mL (mice spleen cells [4]; Mus musculus, 72 h, Con A, 1250 ng/ml, read-out: Suppression rate): 101%; inhibition at 2.5 µg/mL (mice spleen cells [4]; Mus musculus, 72 h, Con A, 2500 ng/ml, read-out: Suppression rate): 101%
